In brackets after ≈: the same amount, converted by molar mass. Activity calls are given as the source filed them. The calls are words filed in the database; no cut-off is given here.
Experiments:
[1] = AUC in NCR nude mouse at 5 mg/kg, po measured upto 8 hrs by LC-MS/MS analysis; type: ADME, organism-based; set-up: time < 8 hrs, dose 5 mg/kg, route po; conditions: in vivo
[2] = target: T1, Cytochrome P450 2C8 (Homo sapiens, UniProt P10632); test: Inhibition of CYP2C8 (unknown origin); type: ADME
T1 sequence (P10632 whole entry): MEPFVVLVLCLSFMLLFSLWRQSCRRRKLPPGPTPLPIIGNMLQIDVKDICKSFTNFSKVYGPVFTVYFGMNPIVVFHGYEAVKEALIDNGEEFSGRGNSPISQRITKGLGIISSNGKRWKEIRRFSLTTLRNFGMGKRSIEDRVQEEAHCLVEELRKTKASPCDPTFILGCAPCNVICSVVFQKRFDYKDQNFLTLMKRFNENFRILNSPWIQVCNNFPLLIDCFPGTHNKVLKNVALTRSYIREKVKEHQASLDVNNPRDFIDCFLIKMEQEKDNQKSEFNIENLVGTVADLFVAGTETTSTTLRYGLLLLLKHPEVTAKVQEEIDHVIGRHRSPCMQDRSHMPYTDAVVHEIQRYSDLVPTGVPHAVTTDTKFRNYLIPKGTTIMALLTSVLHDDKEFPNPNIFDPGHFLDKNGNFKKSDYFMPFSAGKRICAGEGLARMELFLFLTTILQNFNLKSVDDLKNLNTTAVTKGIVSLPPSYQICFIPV

[3] = test system: Mus musculus; test: In vivo PI3K degradation in human HCC1954 cells xenografted in mouse at 50 mg/kg, po; type: functional, organism-based
[4] = test system: Mus musculus; test: In vivo inhibition of PI3K in human HCC1954 cells xenografted in po dosed mouse; type: functional, organism-based; conditions: DDE = dose-dependent effect
[5] = Clearance in SCID-Beige mouse plasma at 1 mg/kg, iv measured upto 24 hrs by LC-MS/MS analysis; type: ADME, organism-based
[6] = Oral bioavailability in NCR nude mouse at 50 mg/kg measured upto 8 hrs by LC-MS/MS analysis; type: ADME, organism-based; conditions: in vivo
[7] = target: CaV1.2 (Homo sapiens, UniProt Q13936); test: Inhibition of human CaV1.2 at 10 uM relative to control
[8] = target: Cytochrome P450 2C9 (Homo sapiens, UniProt P11712); test: Inhibition of CYP2C9 (unknown origin); type: ADME
[9] = target: Phosphatidylinositol 4,5-bisphosphate 3-kinase catalytic subunit alpha isoform (Homo sapiens, UniProt P42336, H1047R)
[10] = target: Cytochrome P450 3A4 (Homo sapiens, UniProt P08684); test: Inhibition of CYP3A4 (unknown origin); type: ADME
[11] = Plasma protein binding in mouse assessed as unbound fraction at 5 uM incubated for 4 hrs by equllibrium dialysis method; type: ADME, cell-free
[12] = Antiproliferative activity against human KPL-4 cells assessed as reduction in cell viability incubated for 4 days by Celltiter-Glo luminescence assay; type: functional, cell-based; conditions: KPL4, 96 h
[13] = AUC in NCR nude mouse at 50 mg/kg, po measured upto 8 hrs by LC-MS/MS analysis; type: ADME, organism-based; set-up: dose 50 mg/kg, time < 8 hrs, route po; conditions: in vivo
[14] = species on record: Homo sapiens; test: Inhibition of PI3KC2b (unknown origin) at 1 uM relative to control
[15] = Clearance in Sprague-Dawley rat plasma at 1 mg/kg, iv measured upto 8 hrs by LC-MS/MS analysis; type: ADME, organism-based
[16] = Thermodynamic aqueous solubility of the compound at pH 2; type: physicochemical; conditions: read-out: Therm_solubility

CaV1.2, sequence (Q13936 whole entry): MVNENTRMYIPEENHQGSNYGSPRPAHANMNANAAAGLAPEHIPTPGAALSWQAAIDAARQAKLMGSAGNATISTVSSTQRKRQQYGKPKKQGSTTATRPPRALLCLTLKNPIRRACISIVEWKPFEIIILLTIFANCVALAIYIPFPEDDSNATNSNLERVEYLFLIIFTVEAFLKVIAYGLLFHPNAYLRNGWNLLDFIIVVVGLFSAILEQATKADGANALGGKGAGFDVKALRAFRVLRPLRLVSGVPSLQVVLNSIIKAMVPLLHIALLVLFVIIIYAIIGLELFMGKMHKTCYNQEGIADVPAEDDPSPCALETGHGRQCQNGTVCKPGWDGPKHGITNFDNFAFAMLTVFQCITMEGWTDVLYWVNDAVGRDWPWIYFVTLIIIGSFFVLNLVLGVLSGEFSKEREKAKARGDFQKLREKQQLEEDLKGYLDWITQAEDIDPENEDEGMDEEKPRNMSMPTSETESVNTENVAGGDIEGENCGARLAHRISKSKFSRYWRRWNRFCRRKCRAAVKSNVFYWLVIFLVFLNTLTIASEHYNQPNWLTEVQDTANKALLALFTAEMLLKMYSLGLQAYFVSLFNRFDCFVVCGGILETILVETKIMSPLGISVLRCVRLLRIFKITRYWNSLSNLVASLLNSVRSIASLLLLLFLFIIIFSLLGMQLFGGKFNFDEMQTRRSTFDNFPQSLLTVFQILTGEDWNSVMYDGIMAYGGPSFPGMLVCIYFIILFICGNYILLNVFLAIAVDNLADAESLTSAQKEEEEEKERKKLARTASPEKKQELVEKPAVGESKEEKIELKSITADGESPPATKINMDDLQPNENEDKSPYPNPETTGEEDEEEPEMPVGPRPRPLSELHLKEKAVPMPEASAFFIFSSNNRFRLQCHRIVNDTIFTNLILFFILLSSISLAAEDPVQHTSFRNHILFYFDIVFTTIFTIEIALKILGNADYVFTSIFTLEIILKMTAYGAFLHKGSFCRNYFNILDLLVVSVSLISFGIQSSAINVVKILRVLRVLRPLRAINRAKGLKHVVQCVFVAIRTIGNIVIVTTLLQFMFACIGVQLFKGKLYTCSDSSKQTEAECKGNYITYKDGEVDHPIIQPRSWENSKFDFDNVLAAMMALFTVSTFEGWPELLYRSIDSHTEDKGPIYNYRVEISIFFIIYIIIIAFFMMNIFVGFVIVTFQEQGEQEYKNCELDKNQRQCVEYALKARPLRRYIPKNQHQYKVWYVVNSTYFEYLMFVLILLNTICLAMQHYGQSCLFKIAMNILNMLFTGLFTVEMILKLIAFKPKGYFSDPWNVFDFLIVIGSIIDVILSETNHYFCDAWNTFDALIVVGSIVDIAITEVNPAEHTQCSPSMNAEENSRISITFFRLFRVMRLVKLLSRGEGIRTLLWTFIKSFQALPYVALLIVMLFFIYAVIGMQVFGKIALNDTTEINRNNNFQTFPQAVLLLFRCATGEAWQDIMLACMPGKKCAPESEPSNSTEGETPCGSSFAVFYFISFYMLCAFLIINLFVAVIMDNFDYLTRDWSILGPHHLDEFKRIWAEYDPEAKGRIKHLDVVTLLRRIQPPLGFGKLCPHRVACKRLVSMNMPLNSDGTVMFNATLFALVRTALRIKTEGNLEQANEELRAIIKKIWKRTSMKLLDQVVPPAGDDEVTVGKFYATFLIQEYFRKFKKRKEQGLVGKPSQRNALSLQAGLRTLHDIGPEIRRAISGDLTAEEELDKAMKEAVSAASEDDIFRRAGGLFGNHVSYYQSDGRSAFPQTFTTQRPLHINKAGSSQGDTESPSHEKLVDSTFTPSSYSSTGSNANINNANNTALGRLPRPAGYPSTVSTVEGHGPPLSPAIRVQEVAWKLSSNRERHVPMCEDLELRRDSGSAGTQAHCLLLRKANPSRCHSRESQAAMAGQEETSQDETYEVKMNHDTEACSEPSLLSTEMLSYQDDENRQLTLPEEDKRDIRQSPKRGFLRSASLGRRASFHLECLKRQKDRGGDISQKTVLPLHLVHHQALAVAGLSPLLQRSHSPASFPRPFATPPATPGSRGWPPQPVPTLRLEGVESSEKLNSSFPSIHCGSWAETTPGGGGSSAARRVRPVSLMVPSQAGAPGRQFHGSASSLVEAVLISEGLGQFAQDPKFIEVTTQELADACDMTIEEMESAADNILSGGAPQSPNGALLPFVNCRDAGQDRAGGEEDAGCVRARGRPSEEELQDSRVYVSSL
Phosphatidylinositol 4,5-bisphosphate 3-kinase catalytic subunit alpha isoform, sequence (P42336 whole entry H1047R, canonical isoform): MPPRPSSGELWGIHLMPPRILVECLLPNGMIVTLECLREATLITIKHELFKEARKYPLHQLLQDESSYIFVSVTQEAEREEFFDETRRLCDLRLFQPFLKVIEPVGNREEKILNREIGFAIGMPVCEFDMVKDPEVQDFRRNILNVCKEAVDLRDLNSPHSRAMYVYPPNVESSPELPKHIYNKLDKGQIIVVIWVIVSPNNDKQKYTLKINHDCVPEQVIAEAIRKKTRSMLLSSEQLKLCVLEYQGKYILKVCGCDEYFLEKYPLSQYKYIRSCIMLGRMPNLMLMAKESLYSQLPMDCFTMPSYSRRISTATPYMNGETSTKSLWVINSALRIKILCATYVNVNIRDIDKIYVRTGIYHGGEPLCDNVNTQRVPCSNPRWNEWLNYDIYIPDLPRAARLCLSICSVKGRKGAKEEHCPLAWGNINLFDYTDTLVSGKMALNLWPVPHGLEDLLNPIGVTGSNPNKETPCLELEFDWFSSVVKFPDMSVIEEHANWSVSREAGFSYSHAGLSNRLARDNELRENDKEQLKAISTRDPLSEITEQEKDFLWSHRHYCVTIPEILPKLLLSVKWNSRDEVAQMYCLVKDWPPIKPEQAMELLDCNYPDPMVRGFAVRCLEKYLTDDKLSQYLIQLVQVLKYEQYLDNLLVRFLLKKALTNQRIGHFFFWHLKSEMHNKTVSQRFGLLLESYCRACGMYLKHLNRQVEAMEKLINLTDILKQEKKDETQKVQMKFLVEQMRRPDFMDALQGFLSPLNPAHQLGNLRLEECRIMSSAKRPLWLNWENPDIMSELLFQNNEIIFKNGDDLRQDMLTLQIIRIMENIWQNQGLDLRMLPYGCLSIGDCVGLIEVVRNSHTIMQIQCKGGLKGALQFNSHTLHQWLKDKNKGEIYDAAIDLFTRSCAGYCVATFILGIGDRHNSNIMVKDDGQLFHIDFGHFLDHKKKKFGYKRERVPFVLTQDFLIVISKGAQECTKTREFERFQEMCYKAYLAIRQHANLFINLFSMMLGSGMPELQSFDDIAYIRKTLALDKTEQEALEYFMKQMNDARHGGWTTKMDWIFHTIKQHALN
Cytochrome P450 3A4, sequence (P08684 whole entry): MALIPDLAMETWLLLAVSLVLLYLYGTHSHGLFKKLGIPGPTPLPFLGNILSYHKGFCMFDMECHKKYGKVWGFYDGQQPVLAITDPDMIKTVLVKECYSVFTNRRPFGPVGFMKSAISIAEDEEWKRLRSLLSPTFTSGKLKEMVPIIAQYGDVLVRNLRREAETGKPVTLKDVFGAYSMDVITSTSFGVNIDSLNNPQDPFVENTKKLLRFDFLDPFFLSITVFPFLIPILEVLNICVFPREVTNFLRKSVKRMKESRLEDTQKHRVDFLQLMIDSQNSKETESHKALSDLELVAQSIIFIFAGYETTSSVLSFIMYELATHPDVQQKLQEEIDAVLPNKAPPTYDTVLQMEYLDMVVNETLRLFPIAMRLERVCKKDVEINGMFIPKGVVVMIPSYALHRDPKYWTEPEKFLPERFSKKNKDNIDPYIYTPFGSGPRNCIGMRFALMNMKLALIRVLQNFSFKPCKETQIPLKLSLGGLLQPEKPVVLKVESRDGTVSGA
Cytochrome P450 2C9, sequence (P11712 whole entry, canonical isoform): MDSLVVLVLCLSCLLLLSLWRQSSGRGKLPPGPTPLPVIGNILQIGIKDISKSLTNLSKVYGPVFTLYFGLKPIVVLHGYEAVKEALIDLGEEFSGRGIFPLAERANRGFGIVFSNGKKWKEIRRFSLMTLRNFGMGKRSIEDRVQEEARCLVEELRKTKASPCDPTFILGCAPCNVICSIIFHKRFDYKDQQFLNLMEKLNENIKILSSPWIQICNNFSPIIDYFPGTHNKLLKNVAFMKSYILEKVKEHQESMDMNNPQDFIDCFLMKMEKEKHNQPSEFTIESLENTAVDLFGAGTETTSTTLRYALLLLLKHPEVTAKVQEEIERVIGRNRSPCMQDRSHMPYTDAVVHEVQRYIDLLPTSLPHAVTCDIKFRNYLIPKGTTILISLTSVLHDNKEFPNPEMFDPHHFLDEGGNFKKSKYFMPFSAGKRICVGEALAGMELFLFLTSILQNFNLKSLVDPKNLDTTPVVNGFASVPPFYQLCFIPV

AUC at 8 h [1]: 2.5 µM·h | IC50 [2]: > 10000 nM | clearance [5]: 37 mL/min/kg | bioavailability [6]: 59% | IC50 [8]: > 10000 nM | EC50 [9]: 19 nM | IC50 [10]: > 10000 nM | fraction unbound at 4 h, 5 µM [11]: 0.261 | AUC at 8 h [13]: 32.9 µM·h | inhibition [14]: > 80% | clearance [15]: 86 mL/min/kg | solubility thermodynamic [16]: 615 µg/mL (≈ 1510 µM)
Structure (SMILES): C[C@H](Nc1ccc2c(c1)OCCn1cc(N3C(=O)OC[C@H]3C(F)F)nc1-2)C(N)=O [INAVOLISIB]
inhibition [3]: Active | inhibition [4]: Dde | inhibition at 10 µM [7]: < 20% | EC50 [12]: 10 nM

— ChEMBL document CHEMBL5150064 (J Med Chem, 2022)
